Experimental data from patent US20220387615A1, “COMPOSITIONS COMPRISING ENZYME CLEAVABLE LINKER PLATFORMS AND CONJUGATES THEREOF” (Danmarks Tekniske Universitet, priority 2019, published 2022).

Tests used:
[1] = system: Helix pomatia Type H-1; test: Cleavage by Helix pomatia Type H-1; type: biochemical; settings: phosphate buffer pH 5, 6 and 7.4; room temperature
Method: The above compound was dissolved in a minimum of DMSO and added to Helix pomatia Type H-1 in phosphate buffer solutions at pH 5, 6 and 7.4, respectively at room temperature. Aliquots were taken out at different time points and LC-MS and HPLC used for analysis. LCMS analysis required a small organic extraction of each aliquot in order to remove the protein prior to analysis. Analytical HPLC allowed direct injection and offers high sensitivity and reliability. Caffeine was included as an internal standard. The compound was almost fully hydrolysed at 5 min.

[2] = system: acid phosphatase; test: Cleavage by acid phosphatase; type: biochemical; settings: phosphate buffer pH 5, 6 and 7.4; room temperature
Method: The above compound was dissolved in a minimum of DMSO and added to acid phosphatase in phosphate buffer solutions at pH 5, 6 and 7.4, respectively at room temperature. Aliquots were taken out at different time points and LC-MS and HPLC used for analysis. LCMS analysis required a small organic extraction of each aliquot in order to remove the protein prior to analysis. Analytical HPLC allowed direct injection and offers high sensitivity and reliability. Caffeine was included as an internal standard. The compound was almost fully hydrolysed at 1 hour.

[3] = system: amano lipase; test: Cleavage by Amano lipase; type: biochemical, Pseudomonas fluorescens; settings: phosphate buffer pH 5, 6 and 7.4; room temperature
Method: The above compound was dissolved in a minimum of DMSO and added to amano lipase in phosphate buffer solutions at pH 5, 6 and 7.4, respectively at room temperature. Aliquots were taken out at different time points and LC-MS and HPLC used for analysis. LCMS analysis required a small organic extraction of each aliquot in order to remove the protein prior to analysis. Analytical HPLC allowed direct injection and offers high sensitivity and reliability. Caffeine was included as an internal standard. The compound was almost fully hydrolysed at 5 min.

[4] = system: Amano Lipase from Pseudomonas fluorescens; test: Lipase test of linker X8: cleavage and model drug release; type: biochemical; settings: for time to full conversion to X10 and X11: 1 mg/mL lipase, room temperature
Method: Compound X8 was exposed to lipase in phosphate buffered solutions at pH 6 and 7.4. […] The pH 6 and 7.4 tests were conducted to determine if any difference in the rate of intramolecular lactonisation would be observed. Initial tests involved incubation of the linker (1 mM in 2% DMSO/buffer) with 1 mg/mL lipase (>20 U/mL) at room temperature (FIG. 16). Caffeine was included as an internal standard. Aliquots were taken out at different time points and LC-MS and HPLC used for analysis.

Structure (SMILES): O=C(NCCNC(=O)c1ccccc1)OCc1ccc(OS(=O)(=O)O)cc1
- time at which the compound was almost fully hydrolysed [1]: 5 min

Structure (SMILES): O=C(NCCOP(=O)(O)O)c1ccccc1
- time at which the compound was almost fully hydrolysed [2]: 1 h

Structure (SMILES): CCCCCCCC(=O)OCCNC(=O)c1ccccc1
- time at which the compound was almost fully hydrolysed [3]: 5 min

Structure (SMILES): CCCCCCCC(=O)OCCN(CC(=O)OCC(=O)c1ccc(Br)cc1)C(=O)c1ccccc1 [Example X8, 2-(N-(2-(2-(4-bromophenyl)-2-oxoethoxy)-2-oxoethyl)benzamido)ethyl octanoate]
- non-linear conversion to products, duration ([4]; FIG. 17, conditions not given): 114 min
- time to full conversion to X10 and X11 ([4]; pH 6): 60 min
- time to full conversion to X10 and X11 ([4]; pH 7.4, linker 1 mM in 2% DMSO/buffer): < 15 min
